According to the supplement of paper PMC4862054:

Assays:
MCF-10A = details: 72 h
In short: (§1)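 For viability and cell death testing, 384-well plates carried compound at 5 concentrations in 10-fold steps over a compound-specific 10,000-fold range, and breast cancer cell lines were seeded in 20 µl suspension. After 72 h incubation, cell death was read by CellTox Green fluorescence (485/520 nm) before viability was read by CellTiter-Glo luminescence. EC50 was fitted from the dose-response curves and censored at the top concentration. Normalisation on each plate was to 0.1 % DMSO and a positive kill control.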

CAL-51 = experiment: normalised response (% of control), CellTiter-Glo; higher = more viable cells (100 = DMSO, 0 = benzethonium chloride kill control); details: incubation time: 72 h
In short: (§2)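 Breast cancer cell lines (20 µl suspension) were seeded into 384-well plates holding compound at 5 concentrations in 10-fold steps over a compound-specific 10,000-fold range, then incubated 72 h. CellTox Green fluorescence (485/520 nm) was read first, then CellTiter-Glo luminescence after 10 min at room temperature. Each plate was normalised to 0.1 % DMSO (100) and a positive kill control (0). Each value is the normalised signal at a single concentration of the series.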

CAL-148 = experiment: as above; details: incubation time: 72 h
In short: as §2

SK-BR-3 [1] = experiment: as above; details: incubation time: 72 h
In short: as §2

Hs578T [2] = experiment: as above; details: incubation time: 72 h
In short: as §2

BT-549 [3] = experiment: as above; details: incubation time: 72 h
In short: as §2

CAL-120 = experiment: as above; details: incubation time: 72 h
In short: as §2

MDA-MB-468 [4] = experiment: as above; details: incubation time: 72 h
In short: as §2

HCC1143 = experiment: as above; details: incubation time: 72 h
In short: as §2

MDA-MB-453 = experiment: as above; details: incubation time: 72 h
In short: as §2

CAL-85-1 [5] = experiment: as above; details: incubation time: 72 h
In short: as §2

HCC1599 = experiment: as above; details: incubation time: 72 h
In short: as §2

MDA-MB-436 [6] = experiment: as above; details: incubation time: 72 h
In short: as §2

HCC1937 = details: 72 h
In short: (§3)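 Breast cancer cell lines in 20 µl suspension were seeded onto 384-well plates that already held compound dissolved in 5 µl medium and were incubated for 72 h. Viability was measured by adding 2.5 µl CellTiter-Blue for 2 h at 37 °C and reading fluorescence at 560/590 nm. Each plate was normalised to vehicle and a positive kill control and checked by Z'-factor. EC50 was taken from a fitted percent-inhibition dose-response curve, censored at the highest concentration, and rows with a drug sensitivity score of zero were removed.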

CAL-85-1 [7] = details: 72 h
In short: as §1

SK-BR-3 [8] = details: 72 h
In short: as §3

Hs578T [9] = details: 72 h
In short: as §3

BT-549 [10] = details: 72 h
In short: as §3

MDA-MB-468 [11] = details: 72 h
In short: as §3

MFM-223 = details: 72 h
In short: as §3

MDA-MB-231 = details: 72 h
In short: as §3

BT-474 = details: 72 h
In short: as §3

MDA-MB-436 [12] = details: 72 h
In short: as §3

Row | EC50, CellTiter-Blue viability (HCC1937) | EC50, CellTiter-Blue viability (SK-BR-3 [8]) | EC50, CellTiter-Blue viability (BT-549 [10]) | EC50, CellTiter-Blue viability (MDA-MB-468 [11]) | EC50, CellTiter-Blue viability (MDA-MB-231) | EC50, CellTiter-Blue viability (BT-474) | EC50, CellTiter-Blue viability (MDA-MB-436 [12]) | SMILES | EC50, CellTox Green (MCF-10A) | normalised response (CAL-51) | normalised response (CAL-148) | normalised response (SK-BR-3 [1]) | normalised response (Hs578T [2]) | normalised response (BT-549 [3]) | normalised response (CAL-120) | normalised response (MDA-MB-468 [4]) | normalised response (HCC1143) | normalised response (MDA-MB-453) | normalised response (CAL-85-1 [5]) | normalised response (HCC1599) | normalised response (MDA-MB-436 [6]) | EC50, CellTox Green (CAL-85-1 [7]) | EC50, CellTiter-Blue viability (Hs578T [9]) | EC50, CellTiter-Blue viability (MFM-223)
1 |  |  |  |  |  |  |  | Nc1nccc(-c2c(-c3ccc(F)cc3)ncn2C2CCCCC2)n1 | 4.81 µM |  |  |  |  |  |  |  |  |  |  |  |  |  |  | 
2 |  |  |  |  |  |  |  | COc1ncc(-c2ccc3nccc(-c4ccnnc4)c3c2)cc1NS(=O)(=O)c1ccc(F)cc1F (100 nM) |  | 29.5% | 42.5% | 23.6% | 39% | 27.1% | 45.6% | 37.9% | 38.2% | 20.1% | 31.8% | 55.4% | 46.7% |  |  | 
3 |  |  |  |  |  |  |  | C[C@@]1(C(=O)Nc2ccc(F)nc2)CCCN1c1nc(Nc2cc(C3CC3)n[nH]2)c2cccn2n1 (1000 nM) |  | 62.5% | 84.9% | 67.9% | 86.5% | 61.4% | 59.3% | 21.4% | 71.5% | 115% | 57.6% | 72.8% | 66.9% |  |  | 
4 |  |  |  |  |  |  |  | COc1c(C)cnc(Cn2cnc3c(Cl)nc(N)nc32)c1C [BIIB021] (1000 nM) |  | 19% | 23.9% | 37.8% | 55.5% | 37.3% | 53.6% | 43.4% | 38.6% | 27.8% | 26.9% | 54.3% | 42.5% |  |  | 
5 |  |  |  |  |  |  |  | CC(C)C[C@H](NC(=O)[C@H](Cc1ccccc1)NC(=O)c1cnccn1)B(O)O [Bortezomib] (100 nM) |  | 1.1% | 22.6% | 4.21% | 0.6% | 1.75% | 10.4% | 0.63% | 10.9% | 29.7% | 1.51% | 56.6% | 2.39% |  |  | 
6 | 77.1 µM |  |  |  |  |  |  | CS(=O)(=O)OCCCCOS(C)(=O)=O [Busulfan] |  |  |  |  |  |  |  |  |  |  |  |  |  |  |  | 
7 |  |  |  |  |  |  |  | CS(=O)(=O)OCCCCOS(C)(=O)=O [Busulfan] (10000 nM) |  | 109% | 102% | 110% | 109% | 97.3% | 94.9% | 109% | 99.1% | 115% | 98.2% | 103% | 101% |  |  | 
8 |  |  |  |  |  |  |  | C#Cc1cccc(Nc2ncnc3cc(OC)c(OCCCCCCC(=O)NO)cc23)c1 [CUDC-101] (1000 nM) |  | 68.4% | 60.3% | 33.5% | 73.9% | 66.9% | 74.2% | 18.8% | 48.9% | 13.5% | 6.55% | 47.9% | 73.7% |  |  | 
9 |  |  |  |  |  |  |  | COc1cccc2c1C(=O)c1c(O)c3c(c(O)c1C2=O)C[C@@](O)(C(C)=O)C[C@@H]3O[C@H]1C[C@H](N)[C@H](O)[C@H](C)O1 [Daunorubicin] (100 nM) |  | 46.2% | 64.8% | 91.9% | 92.6% | 68.9% | 93.1% | 54.9% | 95.8% | 139% | 97.5% | 103% | 77.9% |  |  | 
10 | 0.371 µM |  |  |  |  |  |  | CN1CCN(c2ccc3nc(-c4c(N)c5c(F)cccc5[nH]c4=O)[nH]c3c2)CC1 [Dovitinib] |  |  |  |  |  |  |  |  |  |  |  |  |  |  |  | 
11 |  |  |  |  |  |  |  | CN1CCN(c2ccc3nc(-c4c(N)c5c(F)cccc5[nH]c4=O)[nH]c3c2)CC1 [Dovitinib] (1000 nM) |  | 115% | 94.9% | 97.2% | 101% | 95.5% | 92.1% | 93.7% | 99.1% | 92% | 117% | 106% | 101% |  |  | 
12 |  |  |  |  |  |  |  | O=c1[nH]c(=O)n([C@H]2C[C@H](O)[C@@H](CO)O2)cc1F [Floxuridine] (1000 nM) |  | 37.8% | 92.4% | 54.2% | 13.5% | 85.4% | 39.8% | 69.4% | 94.3% | 102% | 42.7% | 67.7% | 67.9% |  |  | 
13 |  |  |  |  |  |  |  | O=c1[nH]cc(F)c(=O)[nH]1 [Fluorouracil] (1000 nM) |  | 110% | 95.6% | 78.9% | 97.1% | 104% | 106% | 98.7% | 100% | 121% | 52.8% | 84% | 75.6% |  |  | 
14 | 16.4 µM | 12.6 µM | 5.58 µM | 7.12 µM | 7.15 µM | 28.9 µM | 14.7 µM | C[C@@H]1C=C2C(=O)O[C@@H]3CC[C@H](C1)[C@]23O [Galiellalactone] |  |  |  |  |  |  |  |  |  |  |  |  |  | 47.4 µM | 44.6 µM | 38.2 µM
15 |  |  |  |  |  |  |  | C[C@@H]1C=C2C(=O)O[C@@H]3CC[C@H](C1)[C@]23O [Galiellalactone] (5000 nM) |  | 71.9% | 110% | 102% | 111% | 97.6% | 103% | 82% | 101% | 105% | 96.2% | 98.4% | 106% |  |  | 
